Laboratory results as given in ChEMBL document CHEMBL1146808, “Structure-activity relationships of adenosine A3 receptor ligands: new potential therapy for the treatment of glaucoma” (Bioorg Med Chem Lett, 2004).
Several values for one entry are separate records, joined by “and”; a condition that tells them apart may be missing. Equal values may be shown once.

Experiments:
Adenosine receptor A2a = Adenosine receptor A2a (Homo sapiens, UniProt P29274); experiment: biochemical; format: cell-based, HEK293
Description: Displacement of specific [3H]-CGS- 21680 binding at human adenosine A2A receptor expressed in HEK293 cells

Monkey = format: functional, Cercopithecidae, Eye
Description: Effect on IOP (intraocular pressure) was determined in monkey; compared to control that is 20.7 mmHg

Adenosine receptor A2b = biological target: T1, Adenosine receptor A2b (Homo sapiens, UniProt P29275); experiment: biochemical; format: cell-based, HEK293
T1 sequence (P29275 whole entry): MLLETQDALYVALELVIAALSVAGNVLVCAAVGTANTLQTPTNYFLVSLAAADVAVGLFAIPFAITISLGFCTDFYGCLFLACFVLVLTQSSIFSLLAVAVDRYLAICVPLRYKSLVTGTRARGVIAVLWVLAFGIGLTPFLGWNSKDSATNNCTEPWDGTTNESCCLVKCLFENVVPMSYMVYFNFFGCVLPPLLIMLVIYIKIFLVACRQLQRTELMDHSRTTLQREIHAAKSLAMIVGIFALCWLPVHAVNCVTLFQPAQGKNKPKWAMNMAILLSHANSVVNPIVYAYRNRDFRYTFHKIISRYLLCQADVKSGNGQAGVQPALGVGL
Description: Displacement of specific [3H]DPCPX binding at human adenosine A2B receptor expressed in HEK293 cells.

Adenosine receptor A1 = biological target: T2, Adenosine receptor A1 (Homo sapiens, UniProt P30542); experiment: biochemical; format: cell-based, CHO
T2 sequence (P30542 whole entry): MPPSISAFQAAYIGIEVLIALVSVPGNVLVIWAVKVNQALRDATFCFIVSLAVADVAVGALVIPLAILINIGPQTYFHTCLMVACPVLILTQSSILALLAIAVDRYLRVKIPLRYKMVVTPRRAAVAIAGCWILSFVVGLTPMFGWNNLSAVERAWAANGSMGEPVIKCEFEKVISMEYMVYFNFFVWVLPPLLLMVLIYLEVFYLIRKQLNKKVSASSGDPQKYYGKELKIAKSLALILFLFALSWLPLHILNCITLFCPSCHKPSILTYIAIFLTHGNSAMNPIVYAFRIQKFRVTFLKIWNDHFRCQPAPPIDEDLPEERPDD
Description: Displacement of specific [3H]DPCPX binding at human adenosine A1 receptor expressed in CHO cells.

Chain of Adenosine receptor A2a (P29274 whole entry): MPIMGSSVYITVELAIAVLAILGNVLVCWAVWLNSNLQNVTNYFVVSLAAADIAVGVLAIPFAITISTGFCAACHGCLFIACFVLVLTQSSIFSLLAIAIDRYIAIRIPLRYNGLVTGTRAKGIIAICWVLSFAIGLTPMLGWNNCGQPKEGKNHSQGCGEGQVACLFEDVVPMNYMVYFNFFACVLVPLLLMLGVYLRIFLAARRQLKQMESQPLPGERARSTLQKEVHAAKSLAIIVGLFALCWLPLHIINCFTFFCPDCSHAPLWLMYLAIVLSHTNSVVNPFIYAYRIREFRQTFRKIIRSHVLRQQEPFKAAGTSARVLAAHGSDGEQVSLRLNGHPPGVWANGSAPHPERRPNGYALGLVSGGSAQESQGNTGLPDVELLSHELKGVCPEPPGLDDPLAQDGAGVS

Structure (SMILES)	IC50 (Adenosine receptor A2a) [µM]	Effect (Monkey)	IC50 (Adenosine receptor A2b) [µM]	IC50 (Adenosine receptor A1) [µM]
CCCCc1nc2n[nH]cc2c2nc(-c3ccccc3Cl)nn12	0.13	–	–	–
O=C(O)CCc1nc2nc[nH]c2c2nc(-c3ccc(-c4ccccc4)cc3)nn12	> 10	–	–	–
CCCCc1nc2cccc(Cl)c2c2nc(-c3ccccc3)nn12	> 10	–	–	–
CCCCc1nc2n[nH]cc2c2nc(-c3cccc(Cl)c3)nn12	0.76	–	–	–
CCCCc1nc2[nH]cnc2c2nc(-c3ccc(C(F)(F)F)cc3)nn12	–	19.6 mmHg and 19.1 mmHg	> 10	> 10
COCCc1nc2nc[nH]c2c2nc(-c3ccc(-c4ccccc4)cc3)nn12	> 10	–	> 10	> 10
O=C(O)CCCc1nc2nc[nH]c2c2nc(-c3ccc(Cl)cc3)nn12	> 10	–	> 10	> 10
CCCCc1nc2nc[nH]c2c2nc(-c3ccc(-c4ccccc4)cc3)nn12	> 10	–	> 10	> 10
